# Like-named read-outs stand apart in the source and are kept apart here.
# How the values were obtained:
# Type in all cases: in vivo
# [1] = test system: lambsquarters (Chenopodium album); experiment: Test B pre/postemergence; details: Chenopodium album; for pest or weed control at 125 g/ha: 125 g ai/ha; for pest or weed control at 500 g/ha: 500 g ai/ha
# Outline: (§1)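 Following sowing, compounds in a surfactant-bearing non-phytotoxic solvent were applied preemergence; emerged plants 2 to 18 cm high got postemergence treatment concurrently. Evaluation: 13 to 15 days later, greenhouse, 0–100 visual scale.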
# [2] = test system: giant foxtail (Setaria faberii); experiment: Test B pre/postemergence; details: Setaria faberi; for pest or weed control at 125 g/ha: 125 g ai/ha; for pest or weed control at 500 g/ha: 500 g ai/ha
# Outline: as §1
# [3] = test system: barnyardgrass (Echinochloa crus-galli); experiment: Test B pre/postemergence; details: Echinochloa crus-galli; for pest or weed control at 125 g/ha: 125 g ai/ha; for pest or weed control at 500 g/ha: 500 g ai/ha
# Outline: as §1
# [4] = test system: corn (Zea mays); experiment: Test B pre/postemergence; details: Zea mays
# Outline: as §1
# [5] = test system: morningglory (Ipomoea coccinea); experiment: Test B pre/postemergence; details: Ipomoea; for pest or weed control at 125 g/ha: 125 g ai/ha; for pest or weed control at 500 g/ha: 500 g ai/ha
# Outline: as §1
# [6] = test system: cocklebur (Xanthium strumarium); experiment: Test B pre/postemergence; details: Xanthium strumarium; for pest or weed control at 125 g/ha: 125 g ai/ha; for pest or weed control at 500 g/ha: 500 g ai/ha
# Outline: as §1
# [7] = test system: velvetleaf (Abutilon theophrasti); experiment: Test B pre/postemergence; details: Abutilon theophrasti; for pest or weed control at 125 g/ha: 125 g ai/ha; for pest or weed control at 500 g/ha: 500 g ai/ha
# Outline: as §1
# [8] = test system: crabgrass (Digitaria sanguinalis); experiment: Test B pre/postemergence; details: Digitaria sanguinalis; for pest or weed control at 125 g/ha: 125 g ai/ha; for pest or weed control at 500 g/ha: 500 g ai/ha
# Outline: as §1
# [9] = test system: pigweed (Amaranthus retroflexus); experiment: Test B pre/postemergence; details: Amaranthus retroflexus; for pest or weed control at 125 g/ha: 125 g ai/ha; for pest or weed control at 500 g/ha: 500 g ai/ha
# Outline: as §1
# [10] = test system: wheat (Triticum aestivum); experiment: Test B pre/postemergence; details: Triticum aestivum; for plant injury at 125 g/ha: 125 g ai/ha; for plant injury at 500 g/ha: 500 g ai/ha
# Outline: as §1
# [11] = test system: Surinam grass (Brachiaria decumbens); experiment: Test B pre/postemergence; details: Urochloa decumbens; for pest or weed control at 125 g/ha: 125 g ai/ha; for pest or weed control at 500 g/ha: 500 g ai/ha
# Outline: as §1
# [12] = test system: blackgrass (Alopecurus myosuroides); experiment: Test B postemergence; details: Alopecurus myosuroides, post-emergence
# Outline: as §1
# [13] = test system: wild oat (Avena fatua); experiment: Test B postemergence; details: Avena fatua, post-emergence
# Outline: as §1
# [14] = test system: rice (Oryza sativa); experiment: Test B flooded paddy test; details: Oryza sativa, Flood, 1000 g ai/ha; scale 0 to 100; read-out: Plant response rating, Rice
# Outline: (§2)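 Rice, umbrella sedge, duck salad and barnyardgrass grown to 2-leaf stage under flooded paddy conditions and treated with formulated test chemicals. Kept in greenhouse 13–15 days, then visually rated against untreated controls on a 0–100 scale (0 no effect, 100 complete control).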
# [15] = test system: barnyardgrass (Echinochloa crus-galli); experiment: Test B flooded paddy test; details: Echinochloa crus-galli, Flood, 1000 g ai/ha; scale 0 (no effect) to 100 (complete control); read-out: Plant response rating, Barnyardgrass
# Outline: as §2
# [16] = test system: duck salad (Heteranthera limosa); experiment: Test B flooded paddy test; details: Heteranthera limosa, Flood, 1000 g ai/ha; scale 0 to 100; read-out: Plant response rating, Ducksalad
# Outline: as §2
# [17] = test system: umbrella sedge (Cyperus difformis); experiment: Test B flooded paddy test; details: Cyperus difformis, Flood, 1000 g ai/ha; scale 0 to 100; read-out: Plant response rating, Sedge, Umbrella
# Outline: as §2
# [18] = pre-emergence, Preemergence, scale 0 to 100 (0 no effect, 100 complete control), read-out: Plant response rating, Wheat
smiles,measurement,setting,value
CCOC(=O)c1nc(C2CC2)nc(NN)c1Br [Compound 42],pest or weed control at 125 g/ha,"[1]; post-emergence, Postemergence, scale 0 to 100 (0 no effect, 100 complete control), read-out: Lambsquarters plant response rating",80%
same,pest or weed control at 500 g/ha,"[1]; post-emergence, Postemergence, scale 0 to 100, read-out: Plant response rating, Lambsquarters",90%
same,pest or weed control at 125 g/ha,"[1]; pre-emergence, Preemergence, scale 0 to 100 (0 no effect, 100 complete control), read-out: Plant response rating, Lambsquarters",40%
same,pest or weed control at 500 g/ha,"[1]; pre-emergence, Preemergence, scale 0 to 100 (0 no effect, 100 complete control), read-out: Lambsquarters plant response rating",90%
same,pest or weed control at 125 g/ha,"[2]; post-emergence, Postemergence, scale 0 to 100 (0 no effect, 100 complete control), read-out: Foxtail, Giant plant response rating",0%
same,pest or weed control at 500 g/ha,"[2]; post-emergence, Postemergence, scale 0 to 100, read-out: Plant response rating, Foxtail, Giant",0%
same,pest or weed control at 125 g/ha,"[2]; pre-emergence, Preemergence, scale 0 to 100 (0 no effect, 100 complete control), read-out: Plant response rating, Foxtail, Giant",0%
same,pest or weed control at 500 g/ha,"[2]; pre-emergence, Preemergence, scale 0 to 100 (0 no effect, 100 complete control), read-out: Foxtail, Giant plant response rating",0%
same,pest or weed control at 125 g/ha,"[3]; post-emergence, Postemergence, scale 0 to 100 (0 no effect, 100 complete control), read-out: Barnyardgrass plant response rating",10%
same,pest or weed control at 500 g/ha,"[3]; post-emergence, Postemergence, scale 0 to 100, read-out: Plant response rating, Barnyardgrass",30%
same,pest or weed control at 125 g/ha,"[3]; pre-emergence, Preemergence, scale 0 to 100 (0 no effect, 100 complete control), read-out: Plant response rating, Barnyardgrass",0%
same,pest or weed control at 500 g/ha,"[3]; pre-emergence, Preemergence, scale 0 to 100 (0 no effect, 100 complete control), read-out: Barnyardgrass plant response rating",0%
same,plant injury at 125 g/ha,"[4]; post-emergence, Postemergence, 125 g ai/ha, scale 0 to 100 (0 no effect, 100 complete control), read-out: Corn plant response rating",0%
same,"Corn plant response rating (crop injury, 0 = no effect, 100 = complete kill) at 500 g/ha","[4]; post-emergence, Postemergence, 500 g ai/ha, scale 0 to 100",0%
same,"Corn plant response rating (crop injury, 0 = no effect, 100 = complete kill) at 125 g/ha","[4]; pre-emergence, Preemergence, 125 g ai/ha, scale 0 to 100 (0 no effect, 100 complete control)",0%
same,plant injury at 500 g/ha,"[4]; pre-emergence, Preemergence, 500 g ai/ha, scale 0 to 100 (0 no effect, 100 complete control), read-out: Corn plant response rating",0%
same,pest or weed control at 125 g/ha,"[5]; post-emergence, Postemergence, scale 0 to 100 (0 no effect, 100 complete control), read-out: Morningglory plant response rating",80%
same,pest or weed control at 500 g/ha,"[5]; post-emergence, Postemergence, scale 0 to 100, read-out: Plant response rating, Morningglory",90%
same,pest or weed control at 125 g/ha,"[5]; pre-emergence, Preemergence, scale 0 to 100 (0 no effect, 100 complete control), read-out: Plant response rating, Morningglory",20%
same,pest or weed control at 500 g/ha,"[5]; pre-emergence, Preemergence, scale 0 to 100 (0 no effect, 100 complete control), read-out: Morningglory plant response rating",80%
same,pest or weed control at 125 g/ha,"[6]; post-emergence, Postemergence, scale 0 to 100 (0 no effect, 100 complete control), read-out: Cocklebur plant response rating",80%
same,pest or weed control at 500 g/ha,"[6]; post-emergence, Postemergence, scale 0 to 100, read-out: Plant response rating, Cocklebur",90%
same,pest or weed control at 125 g/ha,"[6]; pre-emergence, Preemergence, scale 0 to 100 (0 no effect, 100 complete control), read-out: Plant response rating, Cocklebur",40%
same,pest or weed control at 500 g/ha,"[6]; pre-emergence, Preemergence, scale 0 to 100 (0 no effect, 100 complete control), read-out: Cocklebur plant response rating",70%
same,pest or weed control at 125 g/ha,"[7]; post-emergence, Postemergence, scale 0 to 100 (0 no effect, 100 complete control), read-out: Velvetleaf plant response rating",50%
same,pest or weed control at 500 g/ha,"[7]; post-emergence, Postemergence, scale 0 to 100, read-out: Plant response rating, Velvetleaf",80%
same,pest or weed control at 125 g/ha,"[7]; pre-emergence, Preemergence, scale 0 to 100 (0 no effect, 100 complete control), read-out: Plant response rating, Velvetleaf",10%
same,pest or weed control at 500 g/ha,"[7]; pre-emergence, Preemergence, scale 0 to 100 (0 no effect, 100 complete control), read-out: Velvetleaf plant response rating",70%
same,pest or weed control at 125 g/ha,"[8]; post-emergence, Postemergence, scale 0 to 100 (0 no effect, 100 complete control), read-out: Crabgrass plant response rating",0%
same,pest or weed control at 500 g/ha,"[8]; post-emergence, Postemergence, scale 0 to 100, read-out: Plant response rating, Crabgrass",30%
same,pest or weed control at 125 g/ha,"[8]; pre-emergence, Preemergence, scale 0 to 100 (0 no effect, 100 complete control), read-out: Plant response rating, Crabgrass",0%
same,pest or weed control at 500 g/ha,"[8]; pre-emergence, Preemergence, scale 0 to 100 (0 no effect, 100 complete control), read-out: Crabgrass plant response rating",20%
same,pest or weed control at 125 g/ha,"[9]; post-emergence, Postemergence, scale 0 to 100 (0 no effect, 100 complete control), read-out: Pigweed plant response rating",80%
same,pest or weed control at 500 g/ha,"[9]; post-emergence, Postemergence, scale 0 to 100, read-out: Plant response rating, Pigweed",90%
same,pest or weed control at 125 g/ha,"[9]; pre-emergence, Preemergence, scale 0 to 100 (0 no effect, 100 complete control), read-out: Plant response rating, Pigweed",50%
same,pest or weed control at 500 g/ha,"[9]; pre-emergence, Preemergence, scale 0 to 100 (0 no effect, 100 complete control), read-out: Pigweed plant response rating",90%
same,plant injury at 125 g/ha,"[10]; post-emergence, Postemergence, scale 0 to 100 (0 no effect, 100 complete control), read-out: Wheat plant response rating",50%
same,plant injury at 500 g/ha,"[10]; post-emergence, Postemergence, scale 0 to 100, read-out: Plant response rating, Wheat",50%
same,plant injury at 125 g/ha,[10]; [18],10%
same,plant injury at 500 g/ha,[10]; [18],10%
same,pest or weed control at 125 g/ha,"[11]; post-emergence, Postemergence, scale 0 to 100 (0 no effect, 100 complete control), read-out: Surinam Grass plant response rating",0%
same,pest or weed control at 500 g/ha,"[11]; post-emergence, Postemergence, scale 0 to 100, read-out: Plant response rating, Surinam Grass",10%
same,pest or weed control at 125 g/ha,"[11]; pre-emergence, Preemergence, scale 0 to 100 (0 no effect, 100 complete control), read-out: Plant response rating, Surinam Grass",0%
same,pest or weed control at 500 g/ha,"[11]; pre-emergence, Preemergence, scale 0 to 100 (0 no effect, 100 complete control), read-out: Surinam Grass plant response rating",20%
same,pest or weed control at 125 g/ha,"[12]; 125 g ai/ha, scale 0 to 100 (0 no effect, 100 complete control), read-out: Blackgrass plant response rating",30%
same,pest or weed control at 500 g/ha,"[12]; 500 g ai/ha, scale 0 to 100, read-out: Plant response rating, Blackgrass",60%
same,pest or weed control at 125 g/ha,"[13]; 125 g ai/ha, scale 0 to 100 (0 no effect, 100 complete control), read-out: Oat, Wild plant response rating",0%
same,pest or weed control at 500 g/ha,"[13]; 500 g ai/ha, scale 0 to 100, read-out: Plant response rating, Oat, Wild",0%
same,plant injury at 1000 g/ha,[14],0%
same,pest or weed control at 1000 g/ha,[15],0%
same,pest or weed control at 1000 g/ha,[16],0%
same,pest or weed control at 1000 g/ha,[17],0%
